Results taken from patent US11008290B2, “Halogenated quinoline derivatives as antimicrobial agents” (University of Florida Research Foundation, Incorporated, priority 2015, dated 2021).
≈ marks a conversion by molar mass, not a printed value. Where “and” joins values, the source holds several entries; their conditions need not be identical. Equal values may be shown once. Read-outs that look alike come from different tables or passages of the source. Marks after values point to notes of the source that are not given here.

Columns and labels:
[1] = tested on: S. aureus; test: MIC, antibacterial profile of broxyquinoline and HQ-1 (FIG. 2A); format: cell-based; conditions: Staphylococcus aureus
[2] = tested on: S. epidermidis; test: as above; format: cell-based; conditions: Staphylococcus epidermidis
[3] = tested on: A. baumannii; test: as above; format: cell-based, Acinetobacter baumannii
[4] = tested on: MRSA BAA-1707; test: Calgary Biofilm Device (CBD) MBC/MBEC determination; format: cell-based, Staphylococcus aureus; conditions: for MBC: planktonic killing, first value of cell, read-out: MRSA BAA-1707 MBC
Protocol: (§1) Biofilm eradication experiments were performed using the Calgary Biofilm Device to determine MBC/MBEC values for various compounds of interest (Innovotech, product code: 19111). The Calgary device (96-well plate with lid containing 96 total pegs to establish biofilms; 1 peg/well) was inoculated with 125 μL of a mid-log phase culture diluted 1,000-fold in tryptic soy broth with 0.5% glucose (TSBG) to establish bacterial biofilms after incubation at 37° C. for 24 hours. The lid of the Calgary device was then removed, washed and transferred to another 96-well plate containing 2-fold serial dilutions of the test compounds (the “challenge plate”). The total volume of media with compound in each well in the challenge plate was 150 μL. The Calgary device was then incubated at 37° C. for 24 hours. The lid was then removed from the challenge plate and MBC/MBEC values were determined using different final assays. […] The MBC values were determined as the concentration giving a lack of visible bacterial growth (e.g., turbidity). For determination of MBEC values, the Calgary device lid (with attached pegs/treated biofilms) was transferred to a new 96-well plate containing 150 μL of fresh TSBG media in each well and incubated for 24 hours at 37° C. to allow viable biofilms to grow and disperse resulting in turbidity after the incubation period. […] In select experiments, treated pegs from the Calgary device were removed from lead biofilm eradicators after final incubation, sonicated for 30 minutes in PBS and plated out to determine biofilm cell killing (e.g., colony forming unit per milliliter, CFU/mL).

[5] = tested on: MRSA-2 planktonic cells and biofilms; test: as above; format: cell-based, Staphylococcus aureus; conditions: CBD; for MBC: planktonic killing, first value of MBC/MBEC cell
Protocol: as §1

[6] = tested on: MRSE (ATCC 35984) planktonic cells and biofilms; test: as above; format: cell-based, Staphylococcus epidermidis; conditions: for MBC: planktonic killing, first value of cell
Protocol: as §1

[7] = tested on: VRE (ATCC 700221) planktonic cells and biofilms; test: as above; format: cell-based, Enterococcus faecium; conditions: CBD; for MBC: planktonic killing, first value of cell
Protocol: as §1

[8] = tested on: vancomycin-resistant Enterococcus faecium (VRE, ATCC 700221); test: Minimum inhibitory concentration (MIC) susceptibility assay, broth microdilution; format: cell-based; conditions: for MIC: read-out: VRE MIC
Protocol: (§2) The minimum inhibitory concentration (MIC) for each compound was determined by the broth microdilution method as recommended by the Clinical and Laboratory Standards Institute (CLSI). In a 96-well plate, eleven two-fold serial dilutions of each compound were made in a final volume of 100 μL Luria Broth. Each well was inoculated with ˜10^5 bacterial cells at the initial time of incubation, prepared from a fresh log phase culture (OD600 of 0.5 to 1.0 depending on bacterial strain). […] The concentration range tested for each compound during this study was 0.10 to 100 μM. DMSO served as the vehicle and negative control in each microdilution MIC assay. DMSO was serially diluted with a top concentration of 1% v/v. Bacterial strains used: methicillin-resistant Staphylococcus aureus-2 (MRSA-2; clinical isolate from Shands Hospital in Gainesville, Fla.), methicillin-resistant Staphylococcus epidermidis (MRSE; ATCC 35984), vancomycin-resistant Enterococcus faecium (VRE, ATCC 700221).

[9] = tested on: methicillin-resistant Staphylococcus epidermidis (MRSE; ATCC 35984); test: as above; format: cell-based; conditions: for MIC: read-out: MRSE MIC
Protocol: as §2

[10] = tested on: MRSA-2; test: Mechanistic investigations with metal(II)-cations (MIC assay with 200 μM metal salt); format: cell-based, Staphylococcus aureus; conditions: MRSA-2
Protocol: as §2

[11] = tested on: human red blood cells; test: Hemolysis assay; format: cell-based
Protocol: Freshly drawn human red blood cells (hRBC with ethylenediaminetetraacetic acid (EDTA) as an anticoagulant) were washed with Tris-buffered saline (0.01M Tris-base, 0.155M sodium chloride (NaCl), pH 7.2) and centrifuged for 5 minutes at 3500 rpm. The washing was repeated three times with the buffer. In 96-well plate, the test compounds were added to the buffer. […] The plate was then incubated for 1 hour at 37° C. After incubation, the plate is centrifuged for 5 minutes at 3500 rpm. Then 80 μL of the supernatant were transferred to another 96-well plate and the Optical Density (OD) was read at 405 nm. […] The percent of hemolysis was calculated as (OD405 of the compound-OD405 DMSO)/(OD405 Triton X-OD405 buffer).

[12] = tested on: MRSA-2, MRSE 35984, VRE 700221; test: MIC assays, range stated over the three drug-resistant pathogens; format: cell-based; conditions: range over MRSA-2, MRSE, read-out: MIC against these drug-resistant pathogens
Protocol: as §2

[13] = tested on: methicillin-resistant Staphylococcus aureus-2 (MRSA-2; clinical isolate); test: Minimum inhibitory concentration (MIC) susceptibility assay, broth microdilution; format: cell-based; conditions: Staphylococcus, MRSA
Protocol: as §2

[14] = Staphylococcus aureus, Table 4, CBD
[15] = Staphylococcus aureus, MRSA, Table 3, read-out: MRSA-2 MBC
[16] = Staphylococcus epidermidis, Table 3, CBD, read-out: MRSE MBC
[17] = Enterococcus, Table 3, footnote c = lowest concentration tested, read-out: VRE MBC
[18] = Table 3, at least three independent experiments, read-out: MRSA-2 MIC
[19] = Staphylococcus epidermidis, Table 3

Oc1c(Br)cc(Br)c2cccnc12 [Broxyquinoline]
MIC [1]: 12.5 µM and 4 µg/mL
MIC [2]: 12.5 µM and 4 µg/mL
MIC ([3]; Acinetobacter baumannii, read-out: MIC): 12.5 µM and 4 µg/mL

O=Cc1ccc2c(Br)cc(Br)c(O)c2n1 [Compound 2, 5,7-dibromo-8-hydroxyquinoline-2-carbaldehyde]
melting point: 154 to 156 °C

Cc1ccc2c(Br)cc(Br)c(O)c2n1 [HQ-1, reference compound]
MRSA BAA-1707 MBEC ([4]; Table 4, biofilm eradication, CBD, second value of cell): 46.9 µM
MBC ([4]; Table 4, CBD): 62.5 µM (≈ 19.8 µg/mL)
MRSA-2 Clinical Isolate MBEC ([5]; Table 2, biofilm eradication, second value of MBC/MBEC cell): 188 µM
MBC ([5]; Table 2, read-out: MRSA-2 Clinical Isolate MBC): 23.5 µM (≈ 7.45 µg/mL)
MRSA-2 MBEC ([5]; Table 3, biofilm eradication, second value of MBC/MBEC cell): 188 µM
MBC ([5]; Table 3, read-out: MRSA-2 MBC): 23.5 µM (≈ 7.45 µg/mL)
MRSE ATCC 35984 MBEC ([6]; Table 2, biofilm eradication, CBD, second value of cell): 93.8 µM
MBC ([6]; Table 2, CBD, read-out: MRSE ATCC 35984 MBC): 31.3 µM (≈ 9.92 µg/mL)
MRSE MBEC ([6]; Table 3, biofilm eradication, CBD, second value of cell): 93.8 µM
MBC ([6]; Table 3, CBD, read-out: MRSE MBC): 31.3 µM (≈ 9.92 µg/mL)
VRE ATCC 700221 MBEC ([7]; Table 2, biofilm eradication, second value of cell): 1.5 µM
MBC ([7]; Table 2, read-out: VRE ATCC 700221 MBC): 2.0 µM (≈ 0.634 µg/mL)
VRE MBEC ([7]; Table 3, biofilm eradication, second value of cell, footnote c = lowest concentration tested): 1.5 µM
MBC ([7]; Table 3, footnote c = lowest concentration tested, read-out: VRE MBC): 2.0 µM (≈ 0.634 µg/mL)
MIC [3]: 32 µg/mL
MIC ([3]; read-out: MIC): 100 µM
VRE MIC ([8]; Table 3): 2.35^a μM
MIC ([9]; Table 2, ATCC 35984): 0.39 µM (≈ 0.124 µg/mL)
MRSE MIC ([9]; Table 3): 0.30^a μM
MIC w/Fe^2+ ([10]; 200 μM ammonium iron (II) sulfate hexahydrate): >100^b μM and >100^c μM
MIC w/Cu^2+ ([10]; 200 μM copper (II) sulfate): 25^b μM and 25^c μM
MIC ([10]; 200 μM magnesium (II) sulfate, read-out: MIC w/Mg^2+): 1.56 µM
MIC w/Zn^2+ ([10]; 200 μM zinc (II) chloride): 0.15^a,b μM and 0.1^a,c μM
% Haemolysis at 200 μM ([11]; Table 2, human red blood cells, 1 hour at 37° C.): ≤1%
% Haemolysis at 200 μM ([11]; Table 3, human red blood cells): ≤1%

Cc1c(Br)cc(NCc2ccc3c(Br)cc(Br)c(O)c3n2)cc1Br [HQ-7]
MBC ([5]; Staphylococcus aureus, MRSA, Table 2, read-out: MRSA-2 Clinical Isolate MBC): 500 µM (≈ 290 µg/mL)
MBC ([6]; Staphylococcus epidermidis, Table 2, CBD, read-out: MRSE ATCC 35984 MBC): 250 µM (≈ 145 µg/mL)
MBC ([7]; Enterococcus, Table 2, read-out: VRE ATCC 700221 MBC): 125 µM (≈ 72.5 µg/mL)
MIC [12]: 9.38 to 75 µM (≈ 5.44 to 43.5 µg/mL)
MIC ([13]; Table 2, 2 to 6 independent experiments, read-out: MRSA-2 MIC): 18.8 µM (≈ 10.9 µg/mL)
MIC ([13]; read-out: MIC): > 100 µM
MIC ([8]; Table 2, ATCC 700221): 75 µM (≈ 43.5 µg/mL)
MIC ([9]; Staphylococcus epidermidis, Table 2, ATCC 35984): 9.38 µM (≈ 5.44 µg/mL)
MIC ([10]; Staphylococcus aureus, 200 μM ammonium iron (II) sulfate hexahydrate, read-out: MIC w/Fe^2+): > 100 µM
MIC ([10]; Staphylococcus aureus, 200 μM copper (II) sulfate, read-out: MIC w/Cu^2+): > 100 µM
MIC ([10]; Staphylococcus aureus, 200 μM magnesium (II) sulfate, read-out: MIC w/Mg^2+): > 100 µM
MIC ([10]; Staphylococcus aureus, 200 μM zinc (II) chloride, read-out: MIC w/Zn^2+): > 100 µM
% Haemolysis at 200 μM ([11]; human, 1 h, pH 7.2): ≤1%

N#Cc1ccc2c(Br)cc(Br)c(O)c2n1 [HQ-8, 5,7-dibromo-8-hydroxyquinoline-2-carbonitrile]
melting point: 172 to 174 °C

OCc1ccc2c(Br)cc(Br)c(O)c2n1 [HQ-11, 5,7-dibromo-2-(hydroxymethyl)quinolin-8-ol]
melting point: 131 to 133 °C

CC(O)c1ccc2c(Br)cc(Br)c(O)c2n1 (stereo not shown) [HQ-13, 5,7-dibromo-2-(1-hydroxyethyl)-8-hydroxyquinoline]
melting point: 114 to 116 °C

N=C(N)c1ccc2c(Br)cc(Br)c(O)c2n1 [HQ-14, 5,7-dibromo-8-hydroxyquinoline-2-carboximidamide]
melting point: 172 to 174 °C

Oc1c(Br)cc(Br)c2ccc(CNc3ccc(F)cc3)nc12 [RA-HQ-12]
fold more potent than HQ-1 (MBEC) ([4]; MRSA BAA-1707): 6 fold
MBC [4, 14]: 15.6 µM (≈ 6.65 µg/mL)
MBC [5, 15]: 31.3 µM (≈ 13.3 µg/mL)
MBEC:MBC ratio ([6]; MRSE 35984, CBD): ~1
MBC [6, 16]: 3.9 µM (≈ 1.66 µg/mL)
MBC [7, 17]: 1 µM (≈ 0.426 µg/mL)
MIC [13, 18]: 0.39 µM (≈ 0.166 µg/mL)
MIC ([8]; Table 3): 0.78 µM (≈ 0.332 µg/mL)
MIC [9, 19]: 0.39 µM (≈ 0.166 µg/mL)
% Haemolysis at 200 μM ([11]; human, 1 h, pH 7.2): ≤1%

Oc1c(Br)cc(Br)c2ccc(CNc3ccccc3Br)nc12 [RA-HQ-16]
MBC [4, 14]: 93.8 µM (≈ 45.7 µg/mL)
MBC [5, 15]: 188 µM (≈ 91.6 µg/mL)
MBC [6, 16]: 46.9 µM (≈ 22.8 µg/mL)
MBC [7, 17]: 7.8 µM (≈ 3.8 µg/mL)
MIC [13, 18]: 1.56 µM (≈ 0.76 µg/mL)
MIC ([8]; Table 3): 0.78 µM (≈ 0.38 µg/mL)
MIC [9, 19]: 0.2 µM (≈ 0.0974 µg/mL)
% Haemolysis at 200 μM ([11]; human, 1 h, pH 7.2): ≤1%
